Values belong to the molecule of their own block, whether it stands above or below them. Calls of active or inactive are those of the source.
Tests used:
[1] = molecular target: T1, Rac GTPase-activating protein 1 (Homo sapiens, UniProt Q9H0H5); test: MgcRacGAP GTPase-activating activity inhibitors, confirmation, biochemical, ADP Hunter fluorescence, primary and confirmatory (AID 624330); format: functional
T1 sequence (Q9H0H5 whole entry): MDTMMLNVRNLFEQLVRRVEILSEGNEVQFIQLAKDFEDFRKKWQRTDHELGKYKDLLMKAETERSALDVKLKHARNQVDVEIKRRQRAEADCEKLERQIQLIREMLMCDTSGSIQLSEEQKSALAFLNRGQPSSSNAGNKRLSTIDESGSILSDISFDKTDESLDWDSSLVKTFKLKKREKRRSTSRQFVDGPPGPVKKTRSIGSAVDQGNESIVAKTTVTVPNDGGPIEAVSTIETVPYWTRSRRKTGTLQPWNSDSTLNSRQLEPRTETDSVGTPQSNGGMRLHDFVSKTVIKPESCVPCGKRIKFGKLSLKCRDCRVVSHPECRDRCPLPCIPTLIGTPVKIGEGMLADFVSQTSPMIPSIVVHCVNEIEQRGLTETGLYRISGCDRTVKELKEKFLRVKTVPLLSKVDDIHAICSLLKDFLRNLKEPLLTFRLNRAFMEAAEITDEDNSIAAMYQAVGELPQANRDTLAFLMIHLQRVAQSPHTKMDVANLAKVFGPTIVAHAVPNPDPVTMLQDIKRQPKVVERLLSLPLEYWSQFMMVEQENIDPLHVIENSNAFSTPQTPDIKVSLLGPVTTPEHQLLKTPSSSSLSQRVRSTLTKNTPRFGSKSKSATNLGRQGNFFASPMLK

[2] = cytotoxicity toward NIH3T3 fibroblasts, dose response, counter-screen, cell-based, ATP luminescence, mouse fibroblasts (AID 2010); format: functional;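 also: cells exposed to compound for about 90 hours before reading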
[3] = inhibitors of intracellular T. cruzi replication, confirmation, NIH3T3 host cells, beta-gal luminescence (AID 2044); format: functional, cell-based;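 also: intracellular parasites grown in NIH/3T3 mouse fibroblasts as host cells; luminescent beta-galactosidase reporter signal from transgenic T. cruzi replicating inside host cells; inhibitors lower the luminescence signal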
Cytochrome P450 2C19 = Cytochrome P450 2C19 (Homo sapiens, UniProt P33261); test: Cytochrome panel assay with activity outcomes. Panel member name: p450-cyp2c19 Compounds with AC50 equal or less than 10 uM are considered active; format: functional
Sequence of Cytochrome P450 2C19 (P33261 whole entry): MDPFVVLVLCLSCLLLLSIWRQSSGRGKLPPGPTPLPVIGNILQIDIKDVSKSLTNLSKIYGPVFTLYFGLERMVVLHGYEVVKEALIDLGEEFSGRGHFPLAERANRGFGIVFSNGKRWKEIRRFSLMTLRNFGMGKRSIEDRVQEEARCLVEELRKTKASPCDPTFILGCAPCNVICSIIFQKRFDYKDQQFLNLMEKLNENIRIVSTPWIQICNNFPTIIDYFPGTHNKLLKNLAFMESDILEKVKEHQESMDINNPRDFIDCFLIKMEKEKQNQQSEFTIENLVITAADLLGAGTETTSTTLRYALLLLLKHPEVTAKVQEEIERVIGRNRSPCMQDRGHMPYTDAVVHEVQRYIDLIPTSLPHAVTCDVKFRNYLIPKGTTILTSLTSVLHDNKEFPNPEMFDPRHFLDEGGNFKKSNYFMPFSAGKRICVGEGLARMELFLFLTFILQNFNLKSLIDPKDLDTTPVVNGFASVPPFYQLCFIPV

Cytochrome P450 2C9 = Cytochrome P450 2C9 (Homo sapiens, UniProt P11712)
Sequence of Cytochrome P450 2C9 (P11712 whole entry): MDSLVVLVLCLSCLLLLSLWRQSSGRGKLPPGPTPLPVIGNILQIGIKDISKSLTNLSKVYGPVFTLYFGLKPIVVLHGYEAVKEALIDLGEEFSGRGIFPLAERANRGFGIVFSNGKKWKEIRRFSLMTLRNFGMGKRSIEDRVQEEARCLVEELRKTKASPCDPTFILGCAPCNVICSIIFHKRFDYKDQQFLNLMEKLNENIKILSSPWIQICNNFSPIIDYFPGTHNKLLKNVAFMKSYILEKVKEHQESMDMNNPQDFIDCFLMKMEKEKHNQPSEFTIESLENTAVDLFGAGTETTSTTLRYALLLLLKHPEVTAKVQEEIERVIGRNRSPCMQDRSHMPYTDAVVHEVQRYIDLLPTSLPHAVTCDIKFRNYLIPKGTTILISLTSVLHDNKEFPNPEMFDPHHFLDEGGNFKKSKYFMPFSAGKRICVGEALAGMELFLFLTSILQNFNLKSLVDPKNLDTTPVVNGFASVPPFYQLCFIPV

Cytochrome P450 1A2 = molecular target: T2, Cytochrome P450 1A2 (Homo sapiens, UniProt P05177);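 also: PubChem cytochrome P450 panel assay, CYP1A2 panel member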
T2 sequence (P05177 whole entry): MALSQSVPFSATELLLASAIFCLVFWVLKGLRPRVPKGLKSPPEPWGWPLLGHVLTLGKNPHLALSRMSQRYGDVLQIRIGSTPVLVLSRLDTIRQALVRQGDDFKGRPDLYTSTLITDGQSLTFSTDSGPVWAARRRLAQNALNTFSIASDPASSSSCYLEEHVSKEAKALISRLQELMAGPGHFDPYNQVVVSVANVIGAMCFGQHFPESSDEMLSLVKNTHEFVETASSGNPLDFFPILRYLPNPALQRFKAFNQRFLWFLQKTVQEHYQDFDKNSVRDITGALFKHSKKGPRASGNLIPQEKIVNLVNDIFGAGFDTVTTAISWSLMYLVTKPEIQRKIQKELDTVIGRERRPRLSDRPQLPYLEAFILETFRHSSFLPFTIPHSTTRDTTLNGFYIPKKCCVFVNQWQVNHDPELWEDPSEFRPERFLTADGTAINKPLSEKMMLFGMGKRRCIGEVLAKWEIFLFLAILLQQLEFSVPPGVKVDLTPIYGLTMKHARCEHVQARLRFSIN

Cytochrome P450 3A4 = Cytochrome P450 3A4 (Homo sapiens, UniProt P08684);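 also: CYP3A4 tested as one member of a cytochrome P450 panel screen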
Sequence of Cytochrome P450 3A4 (P08684 whole entry): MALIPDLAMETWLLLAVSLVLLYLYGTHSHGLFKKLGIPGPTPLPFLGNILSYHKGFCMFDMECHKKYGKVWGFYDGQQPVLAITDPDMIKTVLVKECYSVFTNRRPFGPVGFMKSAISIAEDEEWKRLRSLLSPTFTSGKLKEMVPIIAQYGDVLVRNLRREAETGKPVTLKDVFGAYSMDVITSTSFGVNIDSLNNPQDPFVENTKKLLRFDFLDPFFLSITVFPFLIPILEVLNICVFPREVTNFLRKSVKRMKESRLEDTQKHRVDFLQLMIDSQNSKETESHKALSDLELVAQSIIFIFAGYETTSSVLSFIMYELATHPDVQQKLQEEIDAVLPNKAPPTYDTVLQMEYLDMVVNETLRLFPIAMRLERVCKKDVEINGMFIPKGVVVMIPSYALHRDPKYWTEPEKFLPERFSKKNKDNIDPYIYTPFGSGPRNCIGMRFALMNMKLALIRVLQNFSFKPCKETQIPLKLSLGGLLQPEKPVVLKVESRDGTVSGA

Streptococcus = test: Group A Streptococcus viability loss, dose response, counter-screen for streptokinase expression inhibitor project, luminescence, BacTiterGlo (AID 1915); format: functional, organism-based; settings: read-out: EC50;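 also: potency for reduction of bacterial viability or growth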
[4] = test system: Streptococcus sp. 'group A'; test: growth inhibition of control SK(-) GAS strain, dose response, counter-screen for streptokinase expression inhibitor project, luminescence, kanamycin, BacTiterGlo, confirmation (AID 1900); format: functional, organism-based
[5] = Luminescence Cell-Based Dose Retest to Confirm Inhibitors of Cancer Stem Cells. [Related pubchem assays (depositor defined):AID2717, AID2721]; format: functional; settings: Homo sapiens

IC50 [1]: 94.7 µM (active)
SMILES: CN(C)CCCNCC(=O)c1c(-c2ccccc2)n(C)c2ccccc12

IC50 [1]: 109 µM (active)
SMILES: O=c1[nH]c2ccccc2n2c(S)nnc12

AC50 (Cytochrome P450 2C19; read-out: AC50): 39.8 µM (inconclusive)
SMILES: COC(=O)C(C)(C(=O)OC)c1ccc([N+](=O)[O-])cn1

AC50 (Cytochrome P450 2C9): 0.891 µM (inconclusive)
SMILES: Cc1ccc(NC(=O)CCC(=O)c2ccc(F)cc2)cc1Cl

AC50 (Cytochrome P450 1A2): 2.51 µM (inconclusive)
SMILES: Cc1cc2ccc(OC(=O)c3ccc(NC(=N)N)cc3)cc2oc1=O

AC50 (Cytochrome P450 1A2): 25.1 µM (inconclusive)
SMILES: O=C(CCS(=O)(=O)c1cccc2nsnc12)NC1CCCCC1

AC50 (Cytochrome P450 1A2): 15.8 µM (inconclusive)
SMILES: CCOc1ccccc1NC(=O)C(=O)NCC1CCCN1CC (stereo not drawn)

IC50 [1]: 38 µM (active)
SMILES: CCN(CC)c1ccc(NC(=O)COC(=O)Cc2ccsc2)cc1

AC50 (Cytochrome P450 2C19; read-out: AC50): 39.8 µM (inconclusive)
SMILES: CCNc1ncc2nc(-c3ccccc3)c(=O)n(Cc3cccc(OC)c3)c2n1

AC50 (Cytochrome P450 3A4): 25.1 µM (inconclusive)
SMILES: O=C(Nc1ccccc1)N1CCCC2(CCN(C(=O)c3cnccn3)CC2)C1

AC50 (Cytochrome P450 2C9): 0.794 µM (inconclusive)
SMILES: COc1ccc(Cc2nnc(NC(=O)c3cccc([N+](=O)[O-])c3C)s2)cc1

AC50 (Cytochrome P450 2C9): 17.8 µM (inconclusive)
SMILES: CCCCNC(=O)C1C2C=CC3(CN(Cc4ccccc4Cl)C(=O)C13)O2 (stereo not drawn)

AC50 (Cytochrome P450 3A4): 3.98 µM (inconclusive)
SMILES: Cc1cc(N(CN2CCCC2=O)C(=O)c2ccc(F)cc2)no1

IC50 [1]: 54 µM (active)
SMILES: O=C1CSC(=S)N1Nc1ccccc1

AC50 (Cytochrome P450 2C9): 39.8 µM (inconclusive)
SMILES: Cc1cccc(C(=O)N/N=C/c2ccc(OCC(=O)N3CCCCC3)cc2)c1

AC50 (Cytochrome P450 3A4): 22.4 µM (inconclusive) | AC50 (Cytochrome P450 2C19): inconclusive | AC50 (Cytochrome P450 2C9): 1.78 µM (inconclusive)
SMILES: CCOc1cc(/C=N/NC(=O)c2cc(C)[nH]n2)ccc1OC(=O)c1ccc([N+](=O)[O-])cc1

AC50 (Cytochrome P450 2C19): inconclusive
SMILES: Cc1nc2c([nH]1)c(=O)n(C)c(=O)n2Cc1ccco1 [FURAFYLLINE]

Further lines, the molecule ahead of its results:

SMILES: Fc1ccccc1Cc1noc(CN2CCN(Cc3ccc4c(c3)OCO4)CC2)n1
EC50 [2]: > 60 µM (not active) | EC50 [3]: 1.03 µM (active)

SMILES: Fc1ccc(N2CCN(c3ncnc4c3nnn4Cc3ccccc3Cl)CC2)cc1
EC50 [2]: > 60 µM (inconclusive) | EC50 [3]: 2.46 µM (active)

SMILES: CC(C)CC(=O)Nc1sc2c(c1C#N)CC(C)(C)NC2(C)C
AC50 (Cytochrome P450 3A4): 14.1 µM (inconclusive) | AC50 (Cytochrome P450 2C19; read-out: AC50): 28.2 µM (inconclusive)

SMILES: Cc1ccc(CNC(=O)CCC2CCCN(Cc3cccc4ncccc34)C2)o1 (stereo not drawn)
EC50 [2]: > 60 µM (inconclusive) | EC50 [3]: 0.193 µM (active)

SMILES: Cn1c(=O)[nH]c(N)c(Br)c1=O
IC50 [1]: 84.3 µM (active)

SMILES: C/C(=N\NC(=O)c1cc2ccccc2cc1O)c1cc2ccccc2o1
EC50 (Streptococcus): 4.11 µM (active) | EC50 [4]: 1.77 µM (active)

SMILES: Cc1ccc(-c2nc(C(=O)NCCCN3CCOCC3)cc3c2[nH]c2ccccc23)cc1
EC50 [2]: > 30 µM (not active) | EC50 [3]: 1.36 µM (active)

SMILES: C/N=c1\scc(-c2ccc(OC)cc2)n1/N=C(\C)c1cccnc1
EC50 [2]: > 30 µM (not active) | EC50 [3]: 1.79 µM (active)

SMILES: C/C(Cn1cnc([N+](=O)[O-])n1)=N/NC(=O)COc1c(Cl)cc(Cl)cc1Cl
EC50 [2]: > 60 µM (not active) | EC50 [3]: 0.143 µM (active)

SMILES: CCNc1nc(NCC)nc(N/N=C/c2ccc(O)c(O)c2)n1
IC50 [1]: 45.5 µM (active)

SMILES: O=C(N/N=C/c1ccc(Cl)c([N+](=O)[O-])c1)c1cc(-c2ccccc2)nc2ccccc12
AC50 [5]: 2.08 µM (active)

SMILES: C/C(=C\C(=O)c1ccccc1)Nc1ccc(N2CCOCC2)cc1
EC50 [2]: > 60 µM (not active) | EC50 [3]: 6.78 µM (active)

SMILES: Brc1ccc(OCCn2ccnc2)cc1
EC50 [2]: > 60 µM (not active) | EC50 [3]: 3.15 µM (active)

SMILES: CC(C)CC(=O)c1c(O)c(C=O)c(O)c2c1O[C@@]1(C)[C@@H](C2)C[C@H]2C[C@@H]1C2(C)C [EUGLOBAL G1]
AC50 [5]: 2.68 µM (active)

Source: ChEMBL document CHEMBL1201862, “PubChem BioAssay data set” (2004)
